Test results: patent publication US9511058B2, “Methods for using carboxamide, sulfonamide and amine compounds” (Rigel Pharmaceuticals, Inc., priority 2010, dated 2016)

The compounds below were run against AMPK (assay: AMPK activation, enzyme-linked immunosorbent assay). Conditions: compounds of Table 1 (Table 6).
Type: biochemical
Experimental: Compounds of Table 1 were assayed for their ability to activate AMPK using an enzyme-linked immunosorbent assay.
Compounds of Table 2 were assayed for their ability to activate AMPK using an enzyme-linked immunosorbent assay.
Compounds of Table 3 were assayed for their ability to activate AMPK using an enzyme-linked immunosorbent assay.
Compounds of Table 4 were assayed for their ability to activate AMPK using an enzyme-linked immunosorbent assay.
Compounds of Table 5 were assayed for their ability to activate AMPK using an enzyme-linked immunosorbent assay.

Row | Compound | EC50 [nM]
1 | O=C(N[C@@H]1CCN(Cc2ccc(F)cc2)C1)c1ccc(OC2CCN(c3ccc(C(F)(F)F)cc3)CC2)cn1 [1-34, (R)-N-(1-(4-fluorobenzyl)pyrrolidin-3-yl)-5-(1-(4-(trifluoromethyl)phenyl)piperidin-4-yloxy)picolinamide] | 500 to 1000
2 | O=C(NC1CCN(Cc2ccc3ccccc3c2)CC1)c1ccc(OC2CCN(c3ccc(C(F)(F)F)cc3)CC2)cn1 [1-37, N-(1-(naphthalen-2-ylmethyl)piperidin-4-yl)-5-(1-(4-(trifluoromethyl)phenyl)piperidin-4-yloxy)picolinamide] | 500 to 1000
3 | O=C(NC1CCN(Cc2ccccc2)CC1)c1ccc(OC2CCN(c3ccc(C(F)(F)F)cc3)CC2)cn1 [1-38, N-(1-benzylpiperidin-4-yl)-5-(1-(4-(trifluoromethyl)phenyl)piperidin-4-yloxy)picolinamide] | 1000 to 5000
4 | O=C(NC1CN(Cc2ccncc2)C1)c1ccc(OC2CCN(c3ccc(C(F)(F)F)cc3)CC2)cn1 [1-42, N-(1-(pyridin-4-ylmethyl)azetidin-3-yl)-5-(1-(4-(trifluoromethyl)phenyl)piperidin-4-yloxy)picolinamide] | 1000 to 5000
5 | O=C(NC1CCN(Cc2ccncc2)CC1)c1cccc(OC2CCN(c3ccc(C(F)(F)F)cc3)CC2)n1 [1-43, N-(1-(pyridin-4-ylmethyl)piperidin-4-yl)-6-(1-(4-(trifluoromethyl)phenyl)piperidin-4-yloxy)picolinamide] | 1000 to 5000
6 | COC(=O)c1ccc(CN2CCC(NC(=O)c3ccc(OC4CCN(c5ccc(C(F)(F)F)cc5)CC4)nc3)CC2)cc1 [1-45, methyl 4-((4-(6-(1-(4-(trifluoromethyl)phenyl)piperidin-4-yloxy)nicotinamido)piperidin-1-yl)methyl)benzoate] | > 10000
7 | O=C(O)c1ccc(CN2CCC(NC(=O)c3ccc(OC4CCN(c5ccc(C(F)(F)F)cc5)CC4)nc3)CC2)cc1 [1-46, 4-((4-(6-(1-(4-(trifluoromethyl)phenyl)piperidin-4-yloxy)nicotinamido)piperidin-1-yl)methyl)benzoic acid] | 1000 to 5000
8 | O=C(NC1CCN(Cc2cn(C(c3ccccc3)(c3ccccc3)c3ccccc3)cn2)CC1)c1ccc(OC2CCN(c3ccc(C(F)(F)F)cc3)CC2)cn1 [1-47, 5-(1-(4-(trifluoromethyl)phenyl)piperidin-4-yloxy)-N-(1-((1-trityl-1H-imidazol-4-yl)methyl)piperidin-4-yl)picolinamide] | 1000 to 5000
9 | O=C(NC1CCN(Cc2c[nH]cn2)CC1)c1ccc(OC2CCN(c3ccc(C(F)(F)F)cc3)CC2)cn1 [1-48, N-(1-((1H-imidazol-4-yl)methyl)piperidin-4-yl)-5-(1-(4-(trifluoromethyl)phenyl)piperidin-4-yloxy)picolinamide] | 1000 to 5000
10 | O=C(NCCCNCc1ccncc1)c1ccc(OC2CCN(c3ccc(C(F)(F)F)cc3)CC2)cn1 [1-50, N-(3-(pyridin-4-ylmethylamino)propyl)-5-(1-(4-(trifluoromethyl)phenyl)piperidin-4-yloxy)picolinamide] | 1000 to 5000
11 | CC(C)(C)OC(=O)N1CCC(NS(=O)(=O)c2ccc(OC3CCN(c4ccc(C(F)(F)F)cc4)CC3)nc2)CC1 [1-54, tert-butyl 4-(6-(1-(4-(trifluoromethyl)phenyl)piperidin-4-yloxy)pyridine-3-sulfonamido)piperidine-1-carboxylate] | 1000 to 5000
12 | O=S(=O)(NC1CCNCC1)c1ccc(OC2CCN(c3ccc(C(F)(F)F)cc3)CC2)nc1 [1-55, N-(piperidin-4-yl)-6-(1-(4-(trifluoromethyl)phenyl)piperidin-4-yloxy)pyridine-3-sulfonamide] | 1000 to 5000
13 | N#Cc1ccc(CN2CCC(NS(=O)(=O)c3ccc(OC4CCN(c5ccc(C(F)(F)F)cc5)CC4)nc3)CC2)cc1 [1-56, N-(1-(4-cyanobenzyl)piperidin-4-yl)-6-(1-(4-(trifluoromethyl)phenyl)piperidin-4-yloxy)pyridine-3-sulfonamide] | 5000 to 10000
14 | N#Cc1cccc(CN2CCC(NS(=O)(=O)c3ccc(OC4CCN(c5ccc(C(F)(F)F)cc5)CC4)nc3)CC2)c1 [1-57, N-(1-(3-cyanobenzyl)piperidin-4-yl)-6-(1-(4-(trifluoromethyl)phenyl)piperidin-4-yloxy)pyridine-3-sulfonamide] | 500 to 1000
15 | O=C(c1ccc(F)cc1)N1CCC(NS(=O)(=O)c2ccc(OC3CCN(c4ccc(C(F)(F)F)cc4)CC3)nc2)CC1 [1-60, N-(1-(4-fluorobenzoyl)piperidin-4-yl)-6-(1-(4-(trifluoromethyl)phenyl)piperidin-4-yloxy)pyridine-3-sulfonamide] | > 10000

Other lines, results leading:

Row | EC50 [nM] | Compound
16 | < 100 | N#Cc1ccc(CN2CCC(NC(=O)c3cc(OC4CCN(c5ccc(C(F)(F)F)cc5)CC4)ccn3)CC2)cc1 [1-28, N-(1-(4-cyanobenzyl)piperidin-4-yl)-4-(1-(4-(trifluoromethyl)phenyl)piperidin-4-yloxy)picolinamide]
17 | 100 to 500 | O=C(NC1CCN(Cc2ccc(F)cc2)CC1)c1cc(OC2CCN(c3ccc(C(F)(F)F)cc3)CC2)ccn1 [1-29, N-(1-(4-fluorobenzyl)piperidin-4-yl)-4-(1-(4-(trifluoromethyl)phenyl)piperidin-4-yloxy)picolinamide]
18 | < 100 | O=C(N[C@H]1CCN(Cc2ccncc2)C1)c1ccc(OC2CCN(c3ccc(C(F)(F)F)cc3)CC2)cn1 [1-30, (S)-N-(1-(pyridin-4-ylmethyl)pyrrolidin-3-yl)-5-(1-(4-(trifluoromethyl)phenyl)piperidin-4-yloxy)picolinamide]
19 | < 100 | N#Cc1ccc(CN2CC[C@H](NC(=O)c3ccc(OC4CCN(c5ccc(C(F)(F)F)cc5)CC4)cn3)C2)cc1 [1-31, (S)-N-(1-(4-cyanobenzyl)pyrrolidin-3-yl)-5-(1-(4-(trifluoromethyl)phenyl)piperidin-4-yloxy)picolinamide]
20 | 100 to 500 | O=C(N[C@H]1CCN(Cc2ccc(F)cc2)C1)c1ccc(OC2CCN(c3ccc(C(F)(F)F)cc3)CC2)cn1 [1-32, (S)-N-(1-(4-fluorobenzyl)pyrrolidin-3-yl)-5-(1-(4-(trifluoromethyl)phenyl)piperidin-4-yloxy)picolinamide]
21 | 500 to 1000 | N#Cc1ccc(CN2CC[C@@H](NC(=O)c3ccc(OC4CCN(c5ccc(C(F)(F)F)cc5)CC4)cn3)C2)cc1 [1-33, (R)-N-(1-(4-cyanobenzyl)pyrrolidin-3-yl)-5-(1-(4-(trifluoromethyl)phenyl)piperidin-4-yloxy)picolinamide]
22 | 100 to 500 | N#Cc1ccc(CN2CCC(NC(=O)c3ccc(OC4CCN(c5ccc(C(F)(F)F)cc5)CC4)nc3)CC2)cc1 [1-35, N-(1-(4-cyanobenzyl)piperidin-4-yl)-6-(1-(4-(trifluoromethyl)phenyl)piperidin-4-yloxy)nicotinamide]
23 | 100 to 500 | CN(C)c1ccc(CN2CCC(NC(=O)c3ccc(OC4CCN(c5ccc(C(F)(F)F)cc5)CC4)cn3)CC2)cc1 [1-39, N-(1-(4-(dimethylamino)benzyl)piperidin-4-yl)-5-(1-(4-(trifluoromethyl)phenyl)piperidin-4-yloxy)picolinamide]
24 | < 100 | O=C(NC1CCN(Cc2ccc(N3CCOCC3)cc2)CC1)c1ccc(OC2CCN(c3ccc(C(F)(F)F)cc3)CC2)cn1 [1-40, N-(1-(4-morpholinobenzyl)piperidin-4-yl)-5-(1-(4-(trifluoromethyl)phenyl)piperidin-4-yloxy)picolinamide]
25 | 100 to 500 | N#Cc1ccc(CN2CC(NC(=O)c3ccc(OC4CCN(c5ccc(C(F)(F)F)cc5)CC4)cn3)C2)cc1 [1-41, N-(1-(4-cyanobenzyl)azetidin-3-yl)-5-(1-(4 (trifluoromethyl)phenyl)piperidin-4-yloxy)picolinamide]
26 | 100 to 500 | O=C(NC1CCN(Cc2cncnc2)CC1)c1ccc(OC2CCN(c3ccc(C(F)(F)F)cc3)CC2)cn1 [1-44, N-(1-(pyrimidin-5-ylmethyl)piperidin-4-yl)-5-(1-(4-(trifluoromethyl)phenyl)piperidin-4-yloxy)picolinamide]
27 | < 100 | CC(C)(C)OC(=O)NCCCNC(=O)c1ccc(OC2CCN(c3ccc(C(F)(F)F)cc3)CC2)cn1 [1-49, tert-butyl 3-(5-(1-(4-(trifluoromethyl)phenyl)piperidin-4-yloxy)picolinamido) propylcarbamate]
28 | 100 to 500 | O=S(=O)(NC1CCN(Cc2ccncc2)CC1)c1ccc(OC2CCN(c3ccc(C(F)(F)F)cc3)CC2)nc1 [1-51, N-(1-(pyridin-4-ylmethyl)piperidin-4-yl)-6-(1-(4-(trifluoromethyl)phenyl)piperidin-4-yloxy)pyridine-3-sulfonamide]
29 | 100 to 500 | N#Cc1ccc(N2CCC(Oc3ccc(S(=O)(=O)NC4CCN(Cc5ccncc5)CC4)cn3)CC2)cc1 [1-52, N-(1-(pyridin-4-ylmethyl)piperidin-4-yl)-6-(1-(4-cyanophenyl)piperidin-4-yloxy)pyridine-3-sulfonamide]
30 | 100 to 500 | N#Cc1ccc(CN2CCC(Oc3ccc(S(=O)(=O)NC4CCN(Cc5ccncc5)CC4)cn3)CC2)cc1 [1-53, 6-(1-(4-cyanobenzyl)piperidin-4-yloxy)-N-(1-(pyridin-4-ylmethyl)piperidin-4-yl)pyridine-3-sulfonamide]
31 | < 100 | O=S(=O)(NC1CCN(Cc2ccc(C(F)(F)F)cc2)CC1)c1ccc(OC2CCN(c3ccc(C(F)(F)F)cc3)CC2)nc1 [1-58, N-(1-(4-(trifluoromethyl)benzyl)piperidin-4-yl)-6-(1-(4-(trifluoromethyl)phenyl)piperidin-4-yloxy)pyridine-3-sulfonamide]
32 | 100 to 500 | O=S(=O)(NC1CCN(Cc2cccc(C(F)(F)F)c2)CC1)c1ccc(OC2CCN(c3ccc(C(F)(F)F)cc3)CC2)nc1 [1-59, N-(1-(3-(trifluoromethyl)benzyl)piperidin-4-yl)-6-(1-(4-(trifluoromethyl)phenyl)piperidin-4-yloxy)pyridine-3-sulfonamide]
33 | 100 to 500 | Cc1c(C(=O)NC2CCN(C(=O)OC(C)(C)C)CC2)oc2cc(OC3CCN(c4ccc(C(F)(F)F)cc4)CC3)ccc12 [1-61, tert-butyl 4-(3-methyl-6-(1-(4-(trifluoromethyl)phenyl)piperidin-4-yloxy)benzofuran-2-carboxamido)piperidine-1-carboxylate]
